One assay concerns the target T1, PaIspD (Pseudomonas aeruginosa, UniProt P57707).
T1 construct: His6 (N, cleaved yes); made in house; host or cells: Escherichia coli BL21 (DE3), pET28
T1 sequence (P57707 1-234): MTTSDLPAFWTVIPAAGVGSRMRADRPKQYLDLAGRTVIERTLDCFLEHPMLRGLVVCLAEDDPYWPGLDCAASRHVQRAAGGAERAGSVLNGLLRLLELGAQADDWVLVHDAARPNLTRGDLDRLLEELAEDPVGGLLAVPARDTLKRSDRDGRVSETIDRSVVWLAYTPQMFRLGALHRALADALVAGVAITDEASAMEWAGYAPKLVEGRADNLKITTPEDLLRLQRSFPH
In words: Microscale thermophoresis (MST) with dyed PaIspD. The following applies: -log KD, supplement sheet, CORRECTED VALUES. The class given is binding. Here is the method:
The microscale thermophoresis (MST) (Serial no. 201709-BR-N024, Monolith NT.115 Micro Scale Thermophoresis, NanoTemper Technologies GmbH.) was performed using dyed PaIspD, labeled according to the standard protocol from the manufacturer NanoTemper Technologies GmbH Protein Labeling Kit Red-NHS, 2nd Generation. A 2 mM ligand solution containing 10% DMSO was prepared (Solution I). A 200 µl solution of 10% DMSO containing buffer solution was prepared (Solution II). The buffer used was HEPES (50 mM), MgCl2 (5 mM) and Tween (0.05%) at pH 7.6 for all compounds. To PCR tubes 2-16, 10 µl of solution II was added. To tube 1, 20 µl of solution I was added. 10 µl from tube 1 was add to tube 2 and mixed. This was continued until tube 16. To each tube, 10 µL of the protein dye mixture was added and mixed. The mixture was allowed to incubate at room temperature for 5 minutes. Non-hydrophobic capillary tubes were used for measurement. Each sample was measured and analyzed in MO Control version 1.6.
The compound `CN1CCC(N2Cc3cccnc3C2=O)CC1` [Compound 3] had a Kd of 0.000186 M.

`CN(C(=O)c1ccncc1)C1c2cccnc2C(=O)N1C` (centres unmarked) [Compound 10] gave a dissociation constant Kd of 0.000209 M.

As for `CCC(CC)C(=O)N(C)C1c2cccnc2C(=O)N1C` (centres unmarked) [Compound 9], the dissociation constant (Kd) was 0.000536 M.

For `O=C1c2ncccc2CN1CCc1c[nH]c2ccccc12` [Compound 6], the dissociation constant (Kd) was 0.000208 M.

`CN1C(=O)c2ncccc2C1N(C)C(=O)N1CCOCC1` (centres unmarked) [Compound 12] showed a Kd of 0.000239 M.

In turn, `O=C1c2ncccc2CN1CCN1CCOCC1` [Compound 5] showed a Kd of 0.000491 M.

Staying with this assay, now noted: -log KD, supplement sheet, PUBLISHED VALUES.
`CN1CCC(N2Cc3cccnc3C2=O)CC1` [Compound 3] showed a Kd of 0.000186 M.

Turning to `CN(C(=O)c1ccncc1)C1c2cccnc2C(=O)N1C` (centres unmarked) [Compound 10], the Kd is 0.000209 M.

In the case of `CCC(CC)C(=O)N(C)C1c2cccnc2C(=O)N1C` (centres unmarked) [Compound 9], the affinity, expressed as Kd, was 0.000536 M.

Compound `O=C1c2ncccc2CN1CCc1c[nH]c2ccccc12` [Compound 6] showed a Kd of 0.000208 M.

`CN1C(=O)c2ncccc2C1N(C)C(=O)N1CCOCC1` (centres unmarked) [Compound 12]: the Kd was determined as 0.000239 M.

With `O=C1c2ncccc2CN1CCN1CCOCC1` [Compound 5], the Kd was 0.000491 M.

The assay is the same for the next values; noted with them: MST Kd, n=2, mean±SD; HEPES 50 mM, MgCl2 5 mM, Tween 0.05%, pH 7.6.
Compound `CN1CCC(N2Cc3cccnc3C2=O)CC1` [Compound 3] gave a dissociation constant (Kd) of 0.000186 ± 7e-06 M.

Take `CN(C(=O)c1ccncc1)C1c2cccnc2C(=O)N1C` (centres unmarked) [Compound 10]: the equilibrium dissociation constant (Kd) amounted to 0.000209 ± 4e-06 M.

`CCC(CC)C(=O)N(C)C1c2cccnc2C(=O)N1C` (centres unmarked) [Compound 9] yielded a Kd of 0.000536 ± 4.7e-05 M.

Turning to `O=C1c2ncccc2CN1CCc1c[nH]c2ccccc12` [Compound 6], the Kd was 0.000208 ± 7e-06 M.

The compound `CN1C(=O)c2ncccc2C1N(C)C(=O)N1CCOCC1` (centres unmarked) [Compound 12] came in with a dissociation constant (Kd) of 0.000239 ± 6e-06 M.

With `O=C1c2ncccc2CN1CCN1CCOCC1` [Compound 5], the equilibrium dissociation constant (Kd) came to 0.000491 ± 2e-06 M.

The same assay, now with this note: kd (M), supplement sheet, CORRECTED VALUES.
Turning to `CN1CCC(N2Cc3cccnc3C2=O)CC1` [Compound 3], binding was characterised by a dissociation constant (Kd) of 0.000186 M.

`CN(C(=O)c1ccncc1)C1c2cccnc2C(=O)N1C` (centres unmarked) [Compound 10]: the equilibrium dissociation constant (Kd) is 0.000209 M.

Turning to `CCC(CC)C(=O)N(C)C1c2cccnc2C(=O)N1C` (centres unmarked) [Compound 9], binding was put at a Kd of 0.000536 M.

Take `O=C1c2ncccc2CN1CCc1c[nH]c2ccccc12` [Compound 6]: the affinity, expressed as Kd, was 0.000208 M.

The compound `CN1C(=O)c2ncccc2C1N(C)C(=O)N1CCOCC1` (centres unmarked) [Compound 12] returned a Kd of 0.000239 M.

`O=C1c2ncccc2CN1CCN1CCOCC1` [Compound 5] had a Kd of 0.000491 M.

The same assay, now with this note: kd (µM), supplement sheet, CORRECTED VALUES; MST Kd.
The compound `CN1CCC(N2Cc3cccnc3C2=O)CC1` [Compound 3] came in with a Kd of 0.000186 M.

In turn, `CN(C(=O)c1ccncc1)C1c2cccnc2C(=O)N1C` (centres unmarked) [Compound 10] showed a Kd of 0.000209 M.

For the compound `CCC(CC)C(=O)N(C)C1c2cccnc2C(=O)N1C` (centres unmarked) [Compound 9], the Kd came to 0.000536 M.

Regarding `O=C1c2ncccc2CN1CCc1c[nH]c2ccccc12` [Compound 6], the affinity, expressed as Kd, was 0.000208 M.

Turning to `CN1C(=O)c2ncccc2C1N(C)C(=O)N1CCOCC1` (centres unmarked) [Compound 12], binding was put at a Kd of 0.000239 M.

On to `O=C1c2ncccc2CN1CCN1CCOCC1` [Compound 5], for which the Kd came to 0.000491 M.

The same assay, now with this note: supplement sheet, CORRECTED VALUES.
`CN1CCC(N2Cc3cccnc3C2=O)CC1` [Compound 3] yielded an LE of 0.3006.

For the compound `CN(C(=O)c1ccncc1)C1c2cccnc2C(=O)N1C` (centres unmarked) [Compound 10], the LE was determined as 0.2401.

`CCC(CC)C(=O)N(C)C1c2cccnc2C(=O)N1C` (centres unmarked) [Compound 9] gave an LE of 0.2241.

`O=C1c2ncccc2CN1CCc1c[nH]c2ccccc12` [Compound 6]: the LE is listed as 0.2402.

Compound `CN1C(=O)c2ncccc2C1N(C)C(=O)N1CCOCC1` (centres unmarked) [Compound 12] registered an LE of 0.2363.

Compound `O=C1c2ncccc2CN1CCN1CCOCC1` [Compound 5] yielded an LE of 0.2518.

Still in this assay, the particulars now being: supplement sheet, PUBLISHED VALUES.
Take `CN1CCC(N2Cc3cccnc3C2=O)CC1` [Compound 3]: the LLE is -0.7773.

The compound `CN(C(=O)c1ccncc1)C1c2cccnc2C(=O)N1C` (centres unmarked) [Compound 10] displayed an LLE of -0.6357.

For the compound `CCC(CC)C(=O)N(C)C1c2cccnc2C(=O)N1C` (centres unmarked) [Compound 9], the LLE is listed as -0.9347.

For `O=C1c2ncccc2CN1CCc1c[nH]c2ccccc12` [Compound 6], the LLE is -0.7939.

Regarding `CN1C(=O)c2ncccc2C1N(C)C(=O)N1CCOCC1` (centres unmarked) [Compound 12], the LLE is given as -0.5431.

In turn, `O=C1c2ncccc2CN1CCN1CCOCC1` [Compound 5] showed an LLE of -0.7374.

The next assay deals with T1, PaIspD. In words: Fluorescence quenching (PaIspD).
Settings: not given
It counts as binding. Here is the method:
Fluorescence quenching (PaIspD)
Quenching is expressed as (I0 – I) / I0 with I0 the intensity (at 332 nm) of fluorescence in absence of compound and I the intensity of fluorescence upon addition of compound. Inset, fluorescence emission spectra in the presence of increasing concentrations of compound. The concentration of PaIspD was kept at 2 µM during the assay, the compounds were tested in concentration ranges given below. The excitation wavelength was set at 286 nm, emission spectra were recorded between 300 nm and 380 nm. The data were fitted using Qtiplot software (qtiplot.com). A least square fit to a simple bimolecular equilibrium was used to estimate the Kd values. Each measurement was reproduced two times. The measurements were carried out in the following buffer: 50 mM Tris-Cl pH = 8, 50 mM NaCl, 1mM MgCl2.
Table S1. Concentration ranges used to determine Kd during the Fluorescence quenching assay.
`CN1CCC(N2Cc3cccnc3C2=O)CC1` [Compound 3] displayed a dissociation constant (Kd) of 879 ± 64 µM.

In turn, `CN(C(=O)c1ccncc1)C1c2cccnc2C(=O)N1C` (centres unmarked) [Compound 10] gave a Kd of 310 ± 28 µM.

In turn, `CCC(=O)N(C)C1c2cccnc2C(=O)N1C` (centres unmarked) [Compound 8] showed a dissociation constant Kd of 248 ± 15 µM.

In turn, `O=C1c2ncccc2CN1CCc1c[nH]c2ccccc12` [Compound 6] came in with a dissociation constant Kd of 332 ± 22 µM.

The compound `CN1C(=O)c2ncccc2C1N(C)C(=O)N1CCOCC1` (centres unmarked) [Compound 12] registered a dissociation constant (Kd) of 371 ± 42 µM.
